Source: paper PMC12663214, “Synthesis, structural elucidation, and molecular docking of diclofenac-derived hydrazone metal complexes with anti-inflammatory and anticancer potential” (Scientific Reports, 2025)
Several values for one entry are separate records, joined by “and”; a condition that tells them apart may be missing. Identical values can stand only once. Like-named read-outs stand apart in the source and are kept apart here.

How the values were obtained:
[1] = test system: MCF-7 (breast cancer) cell line; settings: cited from earlier work
[2] = test system: HepG-2 (liver cancer) cell line; settings: cited from earlier work
COX-1 (ovine) = biological target: T1, COX-1 (ovine) (Ovis aries, UniProt P05979); assay: COX-1 inhibition, ELISA kit (Cayman Chemical); format: biochemical; settings: ovine COX-1, ELISA
T1 construct: purchased Cayman Chemical 560131
T1 sequence (P05979 25-600): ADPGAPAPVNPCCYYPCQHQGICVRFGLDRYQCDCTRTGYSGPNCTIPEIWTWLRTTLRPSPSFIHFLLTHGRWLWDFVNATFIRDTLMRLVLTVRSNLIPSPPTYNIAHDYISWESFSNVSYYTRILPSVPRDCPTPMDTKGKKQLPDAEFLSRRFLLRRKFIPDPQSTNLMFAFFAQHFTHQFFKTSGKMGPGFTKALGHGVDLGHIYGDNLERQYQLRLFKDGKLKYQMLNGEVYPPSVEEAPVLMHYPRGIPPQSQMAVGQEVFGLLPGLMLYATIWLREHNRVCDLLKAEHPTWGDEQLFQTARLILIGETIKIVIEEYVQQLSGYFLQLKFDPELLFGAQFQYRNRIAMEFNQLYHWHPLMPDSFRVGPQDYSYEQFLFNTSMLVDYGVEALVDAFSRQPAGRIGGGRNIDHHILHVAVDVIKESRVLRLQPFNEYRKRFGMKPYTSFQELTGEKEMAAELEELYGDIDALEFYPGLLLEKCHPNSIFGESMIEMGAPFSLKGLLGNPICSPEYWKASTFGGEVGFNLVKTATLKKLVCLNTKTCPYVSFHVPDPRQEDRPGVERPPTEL
Source text: (§1) These enzymes are crucial targets in the development of anti-inflammatory agents due to their roles in prostaglandin synthesis, with COX-1 associated with normal physiological functions and COX-2 predominantly involved in inflammation.

[3] = biological target: T2, recombinant COX-2 (human) (Homo sapiens, UniProt P35354); assay: COX-2 inhibition, ELISA kit (Cayman Chemical); format: biochemical; settings: for IC50: human recombinant COX-2, ELISA; for COX-2 selectivity index (S.I.): ratio of COX-1 IC50 to COX-2 IC50
T2 construct: purchased Cayman Chemical 560131
T2 sequence (P35354 18-604): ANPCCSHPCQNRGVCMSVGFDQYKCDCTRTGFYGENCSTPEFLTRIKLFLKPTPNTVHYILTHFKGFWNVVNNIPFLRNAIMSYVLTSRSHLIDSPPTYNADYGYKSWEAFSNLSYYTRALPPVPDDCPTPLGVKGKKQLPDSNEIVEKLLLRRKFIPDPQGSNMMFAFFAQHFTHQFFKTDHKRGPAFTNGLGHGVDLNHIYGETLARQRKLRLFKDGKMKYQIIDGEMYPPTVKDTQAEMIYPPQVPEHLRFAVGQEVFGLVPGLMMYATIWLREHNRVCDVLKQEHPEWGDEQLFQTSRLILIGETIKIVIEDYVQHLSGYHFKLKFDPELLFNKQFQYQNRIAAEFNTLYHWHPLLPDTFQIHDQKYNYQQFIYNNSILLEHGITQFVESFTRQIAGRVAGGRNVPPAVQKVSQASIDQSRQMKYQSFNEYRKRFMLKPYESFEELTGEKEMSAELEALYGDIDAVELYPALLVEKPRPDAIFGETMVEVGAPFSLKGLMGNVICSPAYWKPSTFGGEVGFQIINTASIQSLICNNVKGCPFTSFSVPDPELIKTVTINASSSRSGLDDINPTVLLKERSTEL
Source text: as §1

[4] = test system: MCF-7 (breast cancer) cell line; assay: MTT cytotoxicity assay, MCF-7; format: cell-based, homo sapiens, human; settings: for IC50: MTT, MCF-7
Experimental: (§2) MCF-7 and HepG-2 cell lines (provided by the Cell Culture Department, VACSERA, Egypt) were seeded in each 96-well tissue culture plate well at a concentration of 1 × 10^5 cells/ml, adding 100 µl/well. Incubation at 37 °C followed for 24 h until a full monolayer was established. The growth medium was later aspirated, and the cell monolayer was rinsed twice using wash media. It was then subjected to a two-fold dilution in an RPMI medium containing 2% serum, which is regarded as a maintenance medium. Later, 0.1 ml of each dilution was added to individual wells. Three wells were reserved for use as controls and received only the maintenance medium. The plate was then incubated at 37 °C and further monitored accordingly. The marks of toxicity to be checked on the cells include disruption of the cell monolayer, cell rounding and shrinking, or the appearance of granules. MTT solution is prepared from BIO BASIC CANADA INC with a 5 mg/ml strength in PBS. To ensure the MTT and media are well mixed, add 20 µl of MTT solution to each well and shake the plate. The MTT will be metabolized by incubating the plate at 37 °C with 5% CO2 for one to five hr. If there is any residual substance, get rid of the rest by drying the plate on paper towels. Add DMSO (200 µl) to dissolve the formazan (MTT metabolic product) and then put the plate on the shaking table set at 150 rpm for 5 min to assure that the formazan is fully dissolved into the solvent. Measure the optical density at 560 nm and subtract the background signal at 620 nm. The optical density value reflects directly the number of cells[28]–[30]. MCF-7 (breast cancer) and HepG-2 (liver cancer) cell lines.
(§3) The antitumor effects of the newly synthesized HDN ligand and its metal complexes with Cu(II) and Gd(III) were tested against MCF-7 (breast cancer) and HepG-2 (liver cancer) cell lines using the MTT assay[28]–[30].. This method measures cell viability based on mitochondrial activity, clearly indicating each compound’s cytotoxic potential. The key findings from these tests are outlined in Tables 4, S8, and S9 and illustrated in Figures S21-S31.

[5] = test system: HepG-2 (liver cancer) cell line; assay: MTT cytotoxicity assay, HepG-2; format: cell-based, homo sapiens, human; settings: for IC50: MTT, HepG-2
Experimental: as §2, §3

[6] = Solubility in organic solvents; format: physicochemical

## O=c1[nH]cc(F)c(=O)[nH]1 [5-Fluorouracil]
[1]; ref [55],[56]
  IC50: 3.95 µM
[2]; ref [55],[56]
  IC50: 32.5 µM

## O=C(Cc1ccccc1Nc1c(Cl)cccc1Cl)N/N=C/c1c(O)ccc2ccccc12 [Ligand [HDN], (E)−2-(2-((2,6-dichlorophenyl)amino)phenyl)-N’-((2-hydroxynaphthalen-1-yl)methylene)acetohydrazide]
COX-1 (ovine)
  IC50: 10.5 µM
[3]
  IC50: 0.06 µM
  COX-2 selectivity index (S.I.): 174.5
[4]; Homo sapiens, MCF7, MCF-7, 31.25 µg/ml
  inhibition at 31.25 µg/mL: 7.98%
[4]; Homo sapiens, MCF7, MCF-7, 62.5 µg/ml
  inhibition at 62.5 µg/mL: 52.5%
[4]; Homo sapiens, MCF7, MCF-7, 250 µg/ml
  inhibition at 250 µg/mL: 89.2%
[4]; Homo sapiens, MCF7, MCF-7, 500 µg/ml
  inhibition at 500 µg/mL: 97.3%
[4]; Homo sapiens, MCF7, MCF-7, 1000 µg/ml
  inhibition at 1000 µg/mL: 97.5%
[4]; Homo sapiens, MCF7
  IC50: 178 µM and 82.6 µg/mL
[5]; Homo sapiens, HepG2, HepG-2, 31.25 µg/ml
  inhibition at 31.25 µg/mL: 12.9%
[5]; Homo sapiens, HepG2, HepG-2, 62.5 µg/ml
  inhibition at 62.5 µg/mL: 61.4%
[5]; Homo sapiens, HepG2, HepG-2, 250 µg/ml
  inhibition at 250 µg/mL: 96.9%
[5]; Homo sapiens, HepG2, HepG-2, 500 µg/ml
  inhibition at 500 µg/mL: 97.2%
[5]; Homo sapiens, HepG2, HepG-2, 1000 µg/ml
  inhibition at 1000 µg/mL: 97%
[5]; Homo sapiens, HepG2
  IC50: 152 µM and 70.5 µg/mL
[6]; organic solvent: acetone
  solubility in acetone: slight solubility
[6]; organic solvents: DMSO, DMF
  solubility in DMSO and DMF: dissolved well
[6]; organic solvents: EtOH, MeOH
  solubility in EtOH and MeOH: didn’t dissolve

## O.O=C(Cc1ccccc1Nc1c(Cl)cccc1Cl)NN=Cc1c([O-])ccc2ccccc12.[Ag+] [Ag(I)-HDN, [Ag(DN)(H2O)]]
[3]
  COX-2 selectivity index (S.I.): 14.15

## O=C(Cc1ccccc1Nc1c(Cl)cccc1Cl)NN=Cc1c([O-])ccc2ccccc12.O=C(Cc1ccccc1Nc1c(Cl)cccc1Cl)NN=Cc1c([O-])ccc2ccccc12.[Co+2] [Co(II)-HDN, [Co(DN)2]]
COX-1 (ovine)
  IC50: 8.5 µM
[3]
  IC50: 0.62 µM
  COX-2 selectivity index (S.I.): 13.71

## O.O.O.O.O=C(Cc1ccccc1Nc1c(Cl)cccc1Cl)NN=Cc1c(O)ccc2ccccc12.O=C(Cc1ccccc1Nc1c(Cl)cccc1Cl)NN=Cc1c(O)ccc2ccccc12.O=[N+]([O-])[O-].O=[N+]([O-])[O-].O=[N+]([O-])[O-].[Gd+3] [Gd(III)-HDN, [Gd(HDN)2(NO3)2]NO3.4H2O]
COX-1 (ovine)
  IC50: 6 µM
[3]
  IC50: 0.95 µM
  COX-2 selectivity index (S.I.): 6.31
[4]; MCF-7, 0.31 µM/ml
  Inhibition %: 18.33%
[4]; MCF-7, 0.62 µM/ml
  Inhibition %: 50.83%
[4]; MCF-7, 1.25 µM/ml
  Inhibition %: 70.06%
[4]; MCF-7, 2.50 µM/ml
  Inhibition %: 75.34%
[4]; MCF-7, 5.00 µM/ml
  Inhibition %: 96.71%
[4]; MCF-7, 10.00 µM/ml
  Inhibition %: 96.86%
[4]; MCF-7, 10.00 µM/ml, listed as Gd(III) complex
  Inhibition %: exceeding 95%
[4]
  IC50: 0.8 µM
[5]; HepG-2, 0.31 µM/ml
  Inhibition %: 0.45%
[5]; HepG-2, 0.62 µM/ml
  Inhibition %: 0.40%
[5]; HepG-2, 1.25 µM/ml
  Inhibition %: 7.98%
[5]; HepG-2, 2.50 µM/ml
  Inhibition %: 53.05%
[5]; HepG-2, 5.00 µM/ml
  Inhibition %: 81.14%
[5]; HepG-2, 10.00 µM/ml
  Inhibition %: 95.27%
[5]; HepG-2, 10.00 µM/ml, listed as Gd(III) complex
  Inhibition %: exceeding 95%
[5]
  IC50: 2.47 µM

## O=C(O)Cc1ccccc1Nc1c(Cl)cccc1Cl [Diclofenac sodium]
[1]; ref [54],[64]
  IC50: 1790 µM
[2]; ref [54],[64]
  IC50: 147 µM

## [Cu(DN)2]2.5H2O [Cu(II)-HDN]
[4]; MCF-7, 0.31 µM/ml
  Inhibition %: 16.98%
[4]; MCF-7, 0.62 µM/ml
  Inhibition %: 63.27%
[4]; MCF-7, 1.25 µM/ml
  Inhibition %: 84.90%
[4]; MCF-7, 2.50 µM/ml
  Inhibition %: 97.18%
[4]; MCF-7, 5.00 µM/ml
  Inhibition %: 97.39%
[4]; MCF-7, 10.00 µM/ml
  Inhibition %: 97.49%
[4]; MCF-7, 10.00 µM/ml, listed as Cu(II) complex
  Inhibition %: exceeding 95%
[4]
  IC50: 0.65 µM
[4]; breast cancer cells (MCF-7), from IC50 values
  times more potent than 5-fluorouracil: approximately six
[5]; HepG-2, 0.31 µM/ml
  Inhibition %: 2.96%
[5]; HepG-2, 0.62 µM/ml
  Inhibition %: 35.16%
[5]; HepG-2, 1.25 µM/ml
  Inhibition %: 61.65%
[5]; HepG-2, 2.50 µM/ml
  Inhibition %: 85.53%
[5]; HepG-2, 5.00 µM/ml
  Inhibition %: 97.32%
[5]; HepG-2, 10.00 µM/ml
  Inhibition %: 97.38%
[5]; HepG-2, 10.00 µM/ml, listed as Cu(II) complex
  Inhibition %: exceeding 95%
[5]
  IC50: 1 µM

## N.N.[Cl][Pt][Cl] [Cisplatin]
[1]; ref [57],[58]
  IC50: 15.2 µM
[2]; ref [57],[58]
  IC50: 8.45 µM

## CC(C)Cc1ccc(C(C)C(=O)O)cc1 (centres unmarked) [Ibuprofen]
[1]; ref [54]
  IC50: 5060 µM
